According to the supplement of paper PMC10307832:

Assays:
Assay in all cases: relative viability (nuclei count vs DMSO), 5 days (fraction); higher = more cells survive
NCI-H1299 = system: NCI-H1299
In short: (§1)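 Relative viability was taken as the ratio of nuclei in treated wells to nuclei in vehicle wells. Lung cancer cell lines in 1536-well plates received compounds by pin tool one day after seeding, either one drug alone or a fixed anchor-drug dose plus five library-drug doses (not always all listed) in √10 steps. Nuclei were counted on 4× images after 5 days of treatment, and values are medians of duplicate plates.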

A549 = system: A549
In short: as §1

NCI-H520 = system: NCI-H520
In short: as §1

IA-LM = system: IA-LM
In short: as §1

Calu-6 = system: Calu-6
In short: as §1

NCI-H1703 = system: NCI-H1703
In short: as §1

EBC-1 = system: EBC-1
In short: as §1

SMILES | relative viability (NCI-H1299; first compound 0.04 µM) | relative viability (NCI-H1299; first compound 0.1265 µM) | relative viability (NCI-H1299; first compound 0.4 µM) | relative viability (NCI-H1299; first compound 1.265 µM) | relative viability (NCI-H1299; first compound 4 µM) | relative viability (A549; first compound 0.04 µM) | relative viability (A549; first compound 0.1265 µM) | relative viability (A549; first compound 0.4 µM) | relative viability (A549; first compound 1.265 µM) | relative viability (A549; first compound 4 µM) | relative viability (NCI-H520; first compound 0.04 µM) | relative viability (NCI-H520; first compound 0.1265 µM) | relative viability (NCI-H520; first compound 0.4 µM) | relative viability (NCI-H520; first compound 1.265 µM) | relative viability (NCI-H520; first compound 4 µM) | relative viability (IA-LM; first compound 0.04 µM) | relative viability (IA-LM; first compound 0.1265 µM) | relative viability (IA-LM; first compound 0.4 µM) | relative viability (IA-LM; first compound 1.265 µM) | relative viability (IA-LM; first compound 4 µM) | relative viability (Calu-6; first compound 0.04 µM) | relative viability (Calu-6; first compound 0.1265 µM) | relative viability (Calu-6; first compound 0.4 µM) | relative viability (Calu-6; first compound 1.265 µM) | relative viability (Calu-6; first compound 4 µM) | relative viability (NCI-H1703; first compound 0.04 µM) | relative viability (NCI-H1703; first compound 0.1265 µM) | relative viability (NCI-H1703; first compound 0.4 µM) | relative viability (NCI-H1703; first compound 1.265 µM) | relative viability (NCI-H1703; first compound 4 µM) | relative viability (EBC-1; first compound 0.04 µM) | relative viability (EBC-1; first compound 0.1265 µM) | relative viability (EBC-1; first compound 0.4 µM) | relative viability (EBC-1; first compound 1.265 µM) | relative viability (EBC-1; first compound 4 µM)
COc1cc(N2CCC(C(N)=O)CC2)ccc1Nc1nc(N)c(Cl)c(Nc2ccccc2S(=O)(=O)C(C)C)n1 [HG-5-88-01] + CC1(C)CCC(c2ccc(Cl)cc2)=C(CN2CCN(c3ccc(C(=O)NS(=O)(=O)c4ccc(N[C@H](CCN5CCOCC5)CSc5ccccc5)c(S(=O)(=O)C(F)(F)F)c4)cc3)CC2)C1 [Navitoclax] (partner 0.5 µM) | 1.03 | 1.08 | 1.03 | 1.06 | 1.02 | 1.23 | 1.21 | 1.07 | 0.87 | 0.687 | 1.09 | 1.09 | 0.761 | 1.17 | 1.26 | 0.835 | 0.794 | 0.731 | 0.825 | 0.802 | 0.958 | 0.86 | 0.717 | 0.693 | 0.46 | 0.719 | 1.22 | 1.2 | 0.926 | 0.762 | 0.407 | 0.457 | 0.427 | 0.241 | 0.217
COc1cc(N2CCC(C(N)=O)CC2)ccc1Nc1nc(N)c(Cl)c(Nc2ccccc2S(=O)(=O)C(C)C)n1 [HG-5-88-01] + CC(C)C[C@H](NC(=O)[C@H](Cc1ccccc1)NC(=O)c1cnccn1)B(O)O [Bortezomib] (partner 0.002 µM) | 1.02 | 1.02 | 1.03 | 1.04 | 1.04 |  |  |  |  |  | 0.45 | 0.633 | 0.304 | 0.698 | 0.546 | 0.835 | 0.849 | 0.724 | 0.812 | 0.666 | 1.03 | 0.998 | 0.978 | 0.925 | 0.841 | 0.263 | 0.42 | 0.384 | 0.312 | 0.239 | 0.567 | 0.624 | 0.549 | 0.474 | 0.241
Clc1ccc(Nc2nnc(Cc3ccncc3)c3ccccc23)cc1 [Vatalanib] + CC(C)C[C@H](NC(=O)[C@H](Cc1ccccc1)NC(=O)c1cnccn1)B(O)O [Bortezomib] (partner 0.002 µM) | 1.02 | 1.06 | 1 | 1.04 | 1.02 |  |  |  |  |  | 0.841 | 0.573 | 0.677 | 0.547 | 0.702 | 0.963 | 0.955 | 0.91 | 0.763 | 0.871 | 1.07 | 0.991 | 1.18 | 0.911 | 1.1 | 0.464 |  | 0.558 | 0.237 | 0.21 | 0.489 | 0.498 | 0.807 | 0.519 | 0.524
